From patent publication US8648103B2, “Nitrogen-containing aromatic heterocyclyl compound” (Daiichi Sankyo Company, Limited, priority 2008, dated 2014)

These compounds were tested on Human subcutaneous adipocytes (assay: Adipocyte lipolysis assay (suppression of isoproterenol-stimulated fatty acid release)). Conditions: Homo sapiens, Adipocyte; test compound concentration giving 50% fatty acid concentration reduction percentage in culture supernatant; 1 μM isoproterenol, 5 hours incubation; reduction by 100 μM nicotinic acid set at 100%.
Format: cell-based
Source text: The suppressive or promoting activity of a test compound on the lipolysis of neutral fat can be assayed according to an adipocyte lipolysis assay as a cell line assay. If a beta adrenoceptor is stimulated with isoproterenol or the like in adipocytes, lipolysis action in which neutral fat accumulated in the cells is decomposed into fatty acid and glycerol can be promoted, and as a result, the amount of such fatty acid or glycerol released out of the cells can be increased. When a test compound that suppresses lipolysis is added to adipocytes, lipolysis-promoting action by isoproterenol stimulation is reduced, and the concentration of fatty acid or glycerol in a medium is decreased. Accordingly, the suppressive activity of a test compound on lipolysis can be assayed by measuring the reduction percentage of the fatty acid concentration or glycerol concentration in a culture supernatant. Likewise, the promoting activity of a test compound on lipolysis can be assayed by measuring the increase percentage of the fatty acid concentration or glycerol concentration in a medium.
• (1) Human subcutaneous adipocytes disseminated onto a 96 well (Dainippon Sumitomo Pharma Co., Ltd.: F-SA-1096) • (2) Adipocyte Maintenance Medium (Dainippon Sumitomo Pharma Co., Ltd.: AM 1) • (3) Lipolysis assay buffer [137 mM NaCl, 5 mM KCl, 4.2 mM NaHCO3, 1.3 mM CaCl2, 0.5 mM KH2PO4, 0.5 mM MgCl2, 0.5 mM MgSO4, 5 mM Glucose, 20 mM Hepes (pH 7.4), 1% BSA, 1 μM Isoproterenol] • (4) NEFA-C Test Wako (Wako Pure Chemical Industries, Ltd.) Preparation of Screening Materials
In this operation, the actual concentration of the test compound in the buffer was 1/1000 of the above-described concentration.
The above-described subcutaneous adipocytes were cultured in 200 μL of an Adipocyte Maintenance Medium in each well for 7 days. During this culturing operation, the medium was exchanged with a fresh one every 3 days. The medium was exchanged by discarding 100 μL of the medium in each well and then adding 100 μL of a fresh Adipocyte Maintenance Medium to the well. Thereafter, the adipocytes were washed with a Lipolysis assay buffer. Subsequently, 50 μL of a Lipolysis assay buffer that contained the above-described test compound was added to each well, and it was then incubated for 5 hours. In order to obtain the measurement value of the test compound in each concentration, 5 wells on a 96-well plate were used with respect to each concentration. As a positive control of a compound having lipolysis suppressive activity, nicotinic acid was used with reference to a previous report [Green A et. al., J. Biol. Chem., 1992, 267(5), 3223-9].
40 μL of a culture supernatant was extracted from each well, and the fatty acid concentration in the supernatant was then measured. Such fatty acid concentration was measured as follows, using the above-described NEFA-C Test Wako. 80 μL of liquid A included in the kit was added to 40 μL of the culture supernatant extracted from each well, and the obtained mixture was then incubated at 37° C. for 10 minutes. Thereafter, 160 μL of liquid B was added, and the obtained mixture was further incubated at 37° C. for 10 minutes. Thereafter, the absorbance at a wavelength of 550 nm was measured. At the same time, a standard fatty acid solution included in the kit was diluted to prepare a dilution series having a volume of 40 μL. According to the same operations as described above, liquid A and liquid B were added, and the absorbance was then measured. In accordance with instructions included with the kit, a calibration curve was prepared. Based on the thus prepared calibration curve, the fatty acid concentration in the culture supernatant was calculated. The reduction percentage of the fatty acid concentration was calculated with the following formula, setting the reduction percentage obtained by addition of 100 μM (final concentration) of nicotinic acid at 100%. […]

Row | Compound | IC50 [µM]
1 | Cn1cc(NC(=O)CCc2ccc(-c3ccc(O)cc3)cc2)c(C(=O)O)c1 [Example 1, 4-{3-[4-(4-Hydroxyphenyl)phenyl]propanoyl}amino-1-methylpyrrole-3-carboxylic acid] | 1.1
2 | Cn1cc(NC(=O)CCc2ccc3c(Cl)c(O)ccc3c2)c(C(=O)O)c1 [Example 2, 4-[3-(5-Chloro-6-hydroxy-2-naphthyl)propanoyl]amino-1-methylpyrrole-3-carboxylic acid] | 0.535
3 | Cn1cc(NC(=O)CCc2nc(-c3ccc(O)cn3)no2)c(C(=O)O)c1 [Example 3, 4-{3-[(5-Hydroxypyridin-2-yl)-1,2,4-oxadiazol-5-yl]propanoyl}amino-1-methylpyrrole-3-carboxylic acid] | 0.007
4 | Cn1cc(NC(=O)CCc2cnc(-c3ccc(O)cc3)o2)c(C(=O)O)c1 [Example 4, 4-{3-[2-(4-Hydroxyphenyl)oxazol-5-yl]propanoyl}amino-1-methylpyrrole-3-carboxylic acid] | 0.232
5 | Cn1cc(NC(=O)CCc2cnc(-c3ccc(O)cc3)s2)c(C(=O)O)c1 [Example 6, 4-{3-[2-(4-Hydroxyphenyl)thiazol-5-yl]propanoyl}amino-1-methylpyrrole-3-carboxylic acid] | 0.024
6 | Cn1cc(NC(=O)CCc2sc(-c3ccccc3)nc2Cl)c(C(=O)O)c1 [Example 7, 4-[3-(4-Chloro-2-phenylthiazol-5-yl)propanoyl]amino-1-methylpyrrole-3-carboxylic acid] | 1.5
7 | Cn1cc(NC(=O)CCc2sc(-c3ccc(O)cc3)nc2Cl)c(C(=O)O)c1 [Example 8, 4-{3-[4-Chloro-2-(4-hydroxyphenyl)thiazol-5-yl]propanoyl}amino-1-methylpyrrole-3-carboxylic acid] | 0.076
8 | Cn1cc(NC(=O)CCc2cnc(-c3ccc(O)c(F)c3)s2)c(C(=O)O)c1 [Example 9, 4-{3-[2-(4-Hydroxy-3-fluorophenyl)thiazol-5-yl]propanoyl}amino-1-methylpyrrole-3-carboxylic acid] | 0.125
9 | Cn1cc(NC(=O)CCc2cnc(-c3ccc(O)c(Cl)c3)s2)c(C(=O)O)c1 [Example 10, 4-{3-[2-(3-Chloro-4-hydroxyphenyl)thiazol-5-yl]propanoyl}amino-1-methylpyrrole-3-carboxylic acid] | 0.151
10 | CCCCn1cc(NC(=O)CCc2cnc(-c3ccc(O)cn3)o2)c(C(=O)O)c1 [Example 11, 4-{3-[2-(5-Hydroxypyridin-2-yl)oxazol-5-yl]propanoyl}amino-1-butylpyrrole-3-carboxylic acid] | 0.088
11 | O=C(CCc1nc(-c2ccc(O)cn2)no1)Nc1cn(Cc2cc(F)cc(F)c2)cc1C(=O)O [Example 15, 4-{3-[(5-Hydroxypyridin-2-yl)-1,2,4-oxadiazol-5-yl]propanoyl}amino-1-(3,5-difluorobenzyl)pyrrole-3-carboxylic acid] | 0.002
12 | O=C(CCc1nc(-c2ccc(O)cc2)no1)Nc1cn(Cc2cc(F)cc(F)c2)cc1C(=O)O [Example 16, 4-{3-[(4-Hydroxyphenyl)-1,2,4-oxadiazol-5-yl]propanoyl}amino-1-(3,5-difluorobenzyl)pyrrole-3-carboxylic acid] | 0.029
13 | CCCCn1cc(C(=O)O)c(NC(=O)CCc2nc(-c3ccc(O)cn3)no2)n1 [Example 17, 5-{3-[(5-Hydroxypyridin-2-yl)-1,2,4-oxadiazol-5-yl]propanoyl}amino-2-butylpyrazol-4-carboxylic acid] | 0.049
14 | COCCCn1cc(NC(=O)CCc2cnc(-c3ccc(O)cc3)s2)c(C(=O)O)c1 [Example 18, 4-{3-[2-(4-Hydroxyphenyl)thiazol-5-yl]propanoyl}amino-1-(3-methoxypropyl)pyrrole-3-carboxylic acid] | 0.009
15 | CCn1cc(NC(=O)CCc2sc(-c3ccc(O)cc3O)nc2Cl)c(C(=O)O)c1 [Example 21, 4-{3-[4-Chloro-2-(2,4-dihydroxyphenyl)thiazol-5-yl]propanoyl}amino-1-ethylpyrrole-3-carboxylic acid] | 0.041

Now from value to compound:

Row | IC50 [µM] | Compound
16 | 0.029 | CCn1cc(NC(=O)C(F)Cc2cnc(-c3ccc(O)cc3)s2)c(C(=O)O)c1 (racemic) [Example 22, 4-{3-[2-(4-Hydroxyphenyl)thiazol-5-yl]-2-fluoropropanoyl}amino-1-ethylpyrrole-3-carboxylic acid]
17 | 0.663 | Cn1cc(NC(=O)CCc2cnc(-c3ccccc3)s2)c(C(=O)O)c1 [Example 5, 4-{3-(2-Phenylthiazol-5-yl)propanoyl}amino-1-methylpyrrole-3-carboxylic acid]
18 | 0.029 | CCn1cc(NC(=O)CCc2nc(-c3ccc(O)cc3)no2)c(C(=O)O)c1 [Example 12, 4-{3-[3-(4-Hydroxyphenyl)-1,2,4-oxadiazol-5-yl]propanoyl}amino-1-ethylpyrrole-3-carboxylic acid]
19 | 0.04 | CCn1cc(NC(=O)CCc2cnc(-c3ccc(O)cc3)s2)c(C(=O)O)c1 [Example 13, 4-{3-[2-(4-Hydroxyphenyl)thiazol-5-yl]propanoyl}amino-1-ethylpyrrole-3-carboxylic acid]
20 | 0.255 | O=C(CCc1cnc(-c2ccccc2)s1)Nc1cn(CCF)cc1C(=O)O [Example 14, 4-[3-(2-Phenylthiazol-5-yl)propanoyl]amino-1-(2-fluoroethyl)pyrrole-3-carboxylic acid]
21 | 0.093 | CCn1cc(NC(=O)CCc2cnc(-c3ccc(O)cc3C)s2)c(C(=O)O)c1 [Example 19, 4-{3-[2-(4-Hydroxy-2-methylphenyl)thiazol-5-yl]propanoyl}amino-1-ethylpyrrole-3-carboxylic acid]
22 | 0.02 | CCn1cc(NC(=O)CCn2cnc(-c3ccccc3)c2C)c(C(=O)O)c1 [Example 24, 4-{3-(4-Phenyl-5-methylimidazol-1-yl)propanoyl}amino-1-ethylpyrrole-3-carboxylic acid]
23 | 0.01 | CCn1cc(NC(=O)C(F)Cc2cnn(-c3ccccc3)c2C)c(C(=O)O)c1 (centres unmarked) [Example 26, 4-[2-Fluoro-3-(5-methyl-1-phenylpyrazol-5-yl)propanoyl]amino-1-ethylpyrrole-3-carboxylic acid]
24 | 0.036 | CCc1c(CC(F)C(=O)Nc2cn(CC)cc2C(=O)O)cnn1-c1ccccc1 (centres unmarked) [Example 27]
25 | 0.019 | CCc1c(-c2ccccc2)ncn1CCC(=O)Nc1cn(CC)cc1C(=O)O [Example 28, 4-{3-(4-Phenyl-5-ethylimidazol-1-yl)propanoyl}amino-1-ethylpyrrole-3-carboxylic acid]
26 | 0.042 | CCn1cc(NC(=O)CCc2cnn(-c3ccccc3)c2C2CC2)c(C(=O)O)c1 [Example 29]
27 | 0.042 | CCn1cc(NC(=O)C(F)Cc2cnn(-c3ccccc3)c2C2CC2)c(C(=O)O)c1 (centres unmarked) [Example 30]

Same assay, conditions: test compound concentration giving 50% fatty acid concentration reduction percentage in culture supernatant; 1 μM isoproterenol, 5 hours incubation; reduction by 100 μM nicotinic acid set at 100%

Row | Compound | IC50 [µM]
28 | CCn1cc(NC(=O)C(F)Cc2cnc(-c3ccc(O)cc3)s2)c(C(=O)O)c1 (single isomer, unassigned; (+)) [Example 23b, (+)-4-{3-[2-(4-Hydroxyphenyl)thiazol-5-yl]-2-fluoropropanoyl}amino-1-ethylpyrrole-3-carboxylic acid] | 0.103
29 | CCn1cc(NC(=O)C(F)Cc2cnc(-c3ccc(O)cc3)s2)c(C(=O)O)c1 (single isomer, unassigned; (-)) [Example 23a, (−)-4-{3-[2-(4-Hydroxyphenyl)thiazol-5-yl]-2-fluoropropanoyl}amino-1-ethylpyrrole-3-carboxylic acid] | 0.015
